Data reported in patent US10508109B2 (priority 2015, dated 2019).
Where a name gives a salt, the structure may show the parent alone. Read-outs that look alike come from different tables or passages of the source.

Experiments:
SUV39H2 = SUV39H2 (Homo sapiens (Human), UniProt Q9H5I1); assay: biochemical; format: biochemical; conditions: 3H-SAM 100 nM, H3 Histone Peptide 350 nM, room temperature 3 hours
Summary of the method: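 Scintillation proximity format: reactions were halted with streptavidin SPA beads (50 μg/well final) after 3 h at room temperature with enzyme dosed by lot-specific activity.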

A549 = assay: Cell-based assay, anti-proliferative activity (Cell Counting Kit-8, 72 hours); conditions: Homo sapiens, read-out: A549 IC50
Summary of the method: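 Seed cells in 96-well format; add inhibitors; measure growth by CCK-8 at end of exposure; derive IC50.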

[1] = A549 cells, 72 hours exposure, Cell Counting Kit-8

SUV39H2, sequence (Q9H5I1 whole entry): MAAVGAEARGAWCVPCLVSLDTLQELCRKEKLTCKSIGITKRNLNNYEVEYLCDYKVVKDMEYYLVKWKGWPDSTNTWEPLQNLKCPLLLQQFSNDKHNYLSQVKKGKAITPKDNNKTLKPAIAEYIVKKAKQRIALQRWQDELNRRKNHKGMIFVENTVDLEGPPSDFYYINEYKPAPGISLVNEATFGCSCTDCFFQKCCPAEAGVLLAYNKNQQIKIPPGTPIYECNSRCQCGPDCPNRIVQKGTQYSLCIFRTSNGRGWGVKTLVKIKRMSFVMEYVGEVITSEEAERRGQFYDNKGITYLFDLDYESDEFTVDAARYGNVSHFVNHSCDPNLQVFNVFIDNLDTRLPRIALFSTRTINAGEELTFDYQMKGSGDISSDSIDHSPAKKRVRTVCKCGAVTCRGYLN

SMILES | IC50 (SUV39H2) | IC50 (A549; [1]) | IC50 (A549; A549, 72 h)
COc1cc(OC)c(-c2cn3ccc(N4CCN(c5cc(N6CCNCC6)ncn5)CC4)cc3n2)cc1Cl [Example 375, 2-(5-chloro-2,4-dimethoxyphenyl)-7-(4-(6-(piperazin-1-yl)pyrimidin-4-yl)piperazin-1-yl)imidazo[1,2-a]pyridine] | 0.0231 µM | 0.69 µM | –
COc1cc(OC)c(-c2cn3ccc(N4CCN(c5nccc(N6CCCC(O)C6)n5)CC4)cc3n2)cc1Cl (stereo not shown) [Example 376, 1-(2-(4-(2-(5-chloro-2,4-dimethoxyphenyl)imidazo[1,2-a]pyridin-7-yl)piperazin-1-yl)pyrimidin-4-yl)piperidin-3-ol] | 0.0665 µM | 0.98 µM | –
COc1cc(OC)c(-c2cn3ccc(N4CCN(c5cc(N6CCN(C)CC6)ncn5)CC4)cc3n2)cc1Cl [Example 377, 2-(5-chloro-2,4-dimethoxyphenyl)-7-(4-(6-(4-methylpiperazin-1-yl)pyrimidin-4-yl)piperazin-1-yl)imidazo[1,2-a]pyridine dihydrochloride] | 0.0144 µM | – | 0.66 µM
COc1cc(OC)c(-c2cn3ccc(N4CCN(c5cnc(N6CCC(N)C6)nc5)CC4)cc3n2)cc1Cl (stereo not shown) [Example 378, 1-(5-(4-(2-(5-chloro-2,4-dimethoxyphenyl)imidazo[1,2-a]pyridin-7-yl)piperazin-1-yl)pyrimidin-2-yl)pyrrolidin-3-amine dihydrochloride] | 0.0228 µM | – | 0.68 µM
COc1cc(OC)c(-c2cn3ccc(N4CCN(c5nc(N)nc(N6CCOCC6)n5)CC4)cc3n2)cc1Cl [Example 379, 4-(4-(2-(5-chloro-2,4-dimethoxyphenyl)imidazo[1,2-a]pyridin-7-yl)piperazin-1-yl)-6-morpholino-1,3,5-triazin-2-amine] | 0.0269 µM | 0.42 µM | –
COc1ccc(CN[C@H]2CC[C@@H](Nc3ccn4cc(-c5cc(Cl)c(OC)cc5OC)nc4c3)CC2)cc1 [Example 380, cis-N^1-(2-(5-chloro-2,4-dimethoxyphenyl)imidazo[1,2-a]pyridin-7-yl)-N^4-(4-methoxybenzyl)cyclohexane-1,4-diamine bis(2,2,2-trifluoroacetate)] | 0.0333 µM | 0.6 µM | –
COc1cc(OC)c(-c2cn3ccc(N4CCN(c5cccc(N6CCN(C)CC6)n5)CC4)cc3n2)cc1Cl [Example 381, 2-(5-chloro-2,4-dimethoxyphenyl)-7-(4-(6-(4-methylpiperazin-1-yl)pyridin-2-yl)piperazin-1-yl)imidazo[1,2-a]pyridine] | 0.0431 µM | 0.77 µM | –
COc1cc(OC)c(-c2cn3ccc(N4CCN(c5nccc(N6CCN(C(=O)Cc7ccccc7)CC6)n5)CC4)cc3n2)cc1Cl [Example 382, 1-(4-(2-(4-(2-(5-chloro-2,4-dimethoxyphenyl)imidazo[1,2-a]pyridin-7-yl)piperazin-1-yl)pyrimidin-4-yl)piperazin-1-yl)-2-phenylethanone dihydrochloride] | 0.0317 µM | – | 0.68 µM
COc1cc(OC)c(-c2cn3ccc(N4CCCN(c5cncnc5)CC4)cc3n2)cc1Cl [Example 383, 2-(5-chloro-2,4-dimethoxyphenyl)-7-(4-(pyrimidin-5-yl)-1,4-diazepan-1-yl)imidazo[1,2-a]pyridine] | 0.0138 µM | 0.88 µM | –
COc1cc(OC)c(-c2cn3ccc(N4CCN(c5cc(N6CCOCC6)nc(N)n5)CC4)cc3n2)cc1Cl [Example 384, 4-(4-(2-(5-chloro-2,4-dimethoxyphenyl)imidazo[1,2-a]pyridin-7-yl)piperazin-1-yl)-6-morpholinopyrimidin-2-amine] | 0.0109 µM | 0.94 µM | –
COc1cc(OC)c(-c2cn3ccc(N4CCN(c5cc(N6CCCC6)nc(N)n5)CC4)cc3n2)cc1Cl [Example 385, 4-(4-(2-(5-chloro-2,4-dimethoxyphenyl)imidazo[1,2-a]pyridin-7-yl)piperazin-1-yl)-6-(pyrrolidin-1-yl)pyrimidin-2-amine] | 0.038 µM | 0.66 µM | –
